We go through 18 molecules from patent publication US6638960B2, “Halogenobenzimidazoles and their use as microbicides” (Bayer Aktiengesellschaft, priority 1995, dated 2003).

A word on the melting point: it is the temperature, or range, at which the solid turns liquid.

In one data set the test system is Phytophthora infestans. Description: whole plant or invertebrate. In kind it is in vivo. Conditions: in Solanum lycopersicum, 72 h, read-out: Efficacy in % based on the untreated control at an active compound concentration of 50 ppm.
For another data set, the system named is Plasmopara viticola. Description: Plasmopara test (vines)/protective. It counts as in vivo. Particulars: 50 ppm active compound; vines sprayed protectively; evaluated 6 days after inoculation; 100% = no disease.

With `Cc1noc(C)c1S(=O)(=O)n1c(Br)nc2cc3c(cc21)OC(F)(F)O3`, the melting point lay within 130 to 134 °C. The same measure, in the same setting: with `FC1(F)Oc2cc3nc(Br)[nH]c3cc2OC1(F)F` the figure was 170 to 174 °C; with `Clc1nc2cc3c(cc2[nH]1)OCCO3`, 150 °C; with `FC1(F)Oc2cc3nc[nH]c3cc2OC1(F)F`, 70 to 74 °C. With `CN(C)S(=O)(=O)n1c(Br)nc2cc3c(cc21)OC(F)(F)C(F)(F)O3`, the pest or weed control at 50 ppm with Phytophthora infestans worked out at 86%.

Turning to `COc1ccc2c(c1)nc(Cl)n2S(=O)(=O)c1c(C)noc1C`, the pest or weed control at 50 ppm with Phytophthora infestans was 96%. On to `Cc1onc(N)c1S(=O)(=O)n1c(Br)nc2cc3c(cc21)OC(F)(F)O3`, for which the pest or weed control at 50 ppm in the data set with Phytophthora infestans worked out at 95%. For the molecule `Cc1noc(C)c1S(=O)(=O)n1c(Cl)nc2ccccc21`, the pest or weed control at 50 ppm with Phytophthora infestans came to 99%. The same measure, in the same setting: the figure for `Cc1onc(N)c1S(=O)(=O)n1c(Cl)nc2cc3c(cc21)OC(F)(F)C(F)(F)O3` is 97%. On to `Cc1noc(C)c1S(=O)(=O)n1c(Br)nc2cc(Cl)c(Cl)cc21`, for which the pest or weed control at 50 ppm in the data set on Phytophthora infestans was found to be 95%.

Take `Cc1noc(C)c1S(=O)(=O)n1c(Br)nc2cc3c(cc21)OC(F)(F)O3` [drawing 100]: the pest or weed control at 50 ppm in the data set on Phytophthora infestans was found to be 99%. For `Cc1noc(C)c1S(=O)(=O)n1c(Br)nc2cc3c(cc21)OC(F)(F)C(F)(F)O3` [drawing 101], in the data set on Phytophthora infestans, the pest or weed control at 50 ppm amounted to 97%. Consider `Cc1noc(C)c1S(=O)(=O)n1c(Cl)nc2cc3c(cc21)OC(F)(F)O3` [drawing 109], for which, in the data set on Phytophthora infestans, the pest or weed control at 50 ppm came out at 99%. The same measure, in the same setting: the figure for `Cc1noc(C)c1S(=O)(=O)n1c(Cl)nc2ccc(Sc3ccccc3)cc21` [drawing 110] is 99%. As for `Cc1noc(C)c1S(=O)(=O)n1c(Br)nc2cc3c(cc21)OC(F)(F)O3` [drawing 114], the “Efficacy in % based on the untreated control at an active compound concentration of 50 ppm” value (“Efficacy in % based” below) with Plasmopara viticola worked out at 99%.

As for `Cc1noc(C)c1S(=O)(=O)n1c(Br)nc2cc3c(cc21)OC(F)(F)C(F)(F)O3` [drawing 115], the “Efficacy in % based” value in the data set with Plasmopara viticola amounted to 93%. On the same count and under the same terms, with `Cc1noc(C)c1S(=O)(=O)n1c(Cl)nc2cc3c(cc21)OC(F)(F)O3` [drawing 118] the figure was 100%. For `Cc1noc(C)c1S(=O)(=O)n1c(Cl)nc2ccc(Sc3ccccc3)cc21` [drawing 119], the “Efficacy in % based” value with Plasmopara viticola came to 100%.
